Results on 26 molecules are retold here after patent US20100292205A1, “Pyrimidone Compounds As GSK-3 Inhibitors” (PFIZER INC., priority 2006, published 2010).

T1 sequence (P49841 whole entry): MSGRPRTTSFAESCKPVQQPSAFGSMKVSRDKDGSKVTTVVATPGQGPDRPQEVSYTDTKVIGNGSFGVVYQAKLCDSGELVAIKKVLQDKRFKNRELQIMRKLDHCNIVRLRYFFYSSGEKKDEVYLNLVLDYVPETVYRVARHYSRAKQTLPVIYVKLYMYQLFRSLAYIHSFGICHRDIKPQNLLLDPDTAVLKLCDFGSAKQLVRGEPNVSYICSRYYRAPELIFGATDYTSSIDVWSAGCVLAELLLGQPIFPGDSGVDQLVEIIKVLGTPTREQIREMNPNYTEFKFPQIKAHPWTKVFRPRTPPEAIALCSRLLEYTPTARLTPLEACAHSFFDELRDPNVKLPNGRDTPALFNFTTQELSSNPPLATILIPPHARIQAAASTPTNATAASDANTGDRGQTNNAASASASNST

The first experiment has as its target T1, Recombinant human GSK3β (Homo sapiens, UniProt P49841).
T1 construct: His-tag; made in house; host or cells: Sf9 insect cells / baculovirus
Description: GSK-3β (Glycogen Synthase Kinase) cell free enzyme assay. Format: biochemical. To be noted: 1 μM; Examples 157-199. The method, then: Assay Protocol for GSK-3β (Glycogen Synthase Kinase) in a Cell Free Enzyme Assay
Recombinant human GSK3β was expressed in SF9/Baculo virus cells. His-tag protein was purified by affinity chromatography to a Ni-NTA Superflow column. Enzyme activity was assayed as the incorporation of [33P] from the gamma phosphate of [33P]ATP (PerkinElmer) into biotinylated peptide substrate bio-LC-S-R-H-S-S-P-H-Q-pS-E-D-E-E-E-OH (Anaspec). Reactions were carried out in a buffer containing 8 mM MOPS (pH 7.0), 10 mM Magnesium Acetate, 0.2 mM EDTA, 1 mM DTT and 2 uM cold ATP. The 33P-ATP was added for 0.025 uCi/well (120 uL) and the final concentration of substrate was 1.0 uM. Enzyme was preincubated with test agent for 30 minutes at room temperature followed by initiation of the reaction by the addition of substrate mix. Incubations were carried out at RT for 60 min. Reactions were stopped by addition of 0.66 volume of buffer containing: 12.5 mM EDTA, 0.25% Triton-X 100, 125 uM ATP, and 6.2 mg/ml streptavidin coated SPA beads (Amersham) in PBS without Ca or Mg. Radioactivity associated with the beads was quantified by scintillation counting of CPM in a Trilux counter (PerkinElmer).
Examples 42 to 60 were prepared using the analogous procedure described to prepare Example 41, substituting the appropriate starting material (Examples 1 to 35) and coupling with the appropriate acid. The assay protocol used is the percent inhibition at 1 μM for GSK-3β in the cell free enzyme assay described above.
Turning to `CN(c1nc(-c2ccncc2)cc(=O)n1C)C1CCCN(S(=O)(=O)c2ccccc2)CC1` (centres unmarked) [Example 182, 3-Methyl-2-{methyl[1-(phenylsulfonyl)azepan-4-yl]amino}-6-pyridin-4-ylpyrimidin-4(3H)-one], the “Percent inhibition at 1 μM” value turned out to be 96%.

Staying with this experiment, now noted: 1 μM; Examples 157-199; read-out: Percent inhibition at 1 μM.
With `CN(c1nc(-c2ccncc2)cc(=O)n1C)C1CCCN(S(C)(=O)=O)CC1` (centres unmarked) [Example 159, 3-Methyl-2-{methyl[1-(methylsulfonyl)azepan-4-yl]amino}-6-pyridin-4-ylpyrimidin-4(3H)-one], the inhibition at 1 µM turned out to be 100%.

For the molecule `CCN(c1nc(-c2ccncc2)cc(=O)n1C)C1CCCN(S(C)(=O)=O)CC1` (centres unmarked) [Example 163, 2-{Ethyl[1-(methylsulfonyl)azepan-4-yl]amino}-3-methyl-6-pyridin-4-ylpyrimidin-4(3H)-one], the inhibition at 1 µM was 100%.

Take `Cn1c(N[C@H]2CN(S(=O)(=O)c3ccccc3)C[C@@H]2F)nc(-c2ccncc2)cc1=O` [Example 176, 2-{[(3S,4S)-4-Fluoro-1-(phenylsulfonyl)pyrrolidin-3-yl]amino}-3-methy!-6-pyridin-4-ylpyrimidin-4(3H)-one]: the inhibition at 1 µM amounted to 96%.

In the case of `CN(c1nc(-c2ccncc2)cc(=O)n1C)[C@@H]1CC[C@H]2N(S(C)(=O)=O)CC[C@@]2(C)C1` [Example 162, 3-Methyl-2-{methyl[(3a,S5,R7,aR)-3a-methyl-1-(methylsulfonyl)octahydro-1H-indo-5-yl]amino}-6-pyridin-4-ylpyrimidin-4(3H)-one], the inhibition at 1 µM worked out at 84%.

Turning to `Cn1c(N[C@@H]2CN(S(=O)(=O)c3ccccc3)C[C@@H]2F)nc(-c2ccncc2)cc1=O` [Example 184, 2-{[(3R,4S)-4-Fluoro-1-(phenylsulfonyl)pyrrolidin-3-yl]amino}-3-methyl-6-pyridin-4-ylpyrimidin-4(3H)-one], the inhibition at 1 µM was found to be 100%.

Still in this experiment, the particulars now being: 1 μM; Examples 201-221; read-out: Percent inhibition at 1 μM.
As for `COC(=O)N1CC[C@@]2(C)C[C@H](N(C)c3nc(-c4ccncc4)cc(=O)n3C)CC[C@@H]12` [Example 216, Methyl (3a,S5,R7,aR)-3a-methyl-5-[methyl(1-methyl-6-oxo-4-pyridin-4-yl-16-dihydropyrimidin-2-yl)amino]octahydro-1H-indole-1-carboxylate], the inhibition at 1 µM was determined as 88%.

Turning to `COC(=O)N1C[C@H](Nc2nc(-c3ccncc3)cc(=O)n2C)[C@@H](F)C1` [Example 207, Methyl (3S,4S)-3-fluoro-4-[(1-methyl-6-oxo-4-pyridin-4-yl-l6-dihydropyrimidin-2-yl)amino]pyrrolidine-1-carboxylate], the inhibition at 1 µM is 74%.

Staying with this experiment, now noted: 1 μM; GSK-3β cell free enzyme assay; Examples 42-60; read-out: Percent inhibition at 1 μM.
With `CC(=O)N1[C@@H]2CC[C@H]1CN(c1nc(-c3ccncc3)cc(=O)n1C)C2` [Example 44, 2-[(1R,5S)-3-Acetyl-38-diazabicyclo[3.2.1]oct-8-yl]-3-methyl-6-pyridin-4-ylpyrimidin-4(3H)-one], the inhibition at 1 µM was 72%.

For `CC(=O)N1CCCC(Nc2nc(-c3ccncc3)cc(=O)n2C)CC1` (centres unmarked) [Example 43, 2-[(1-Acetylazepan-4-yl)amino]-3-methyl-6-pyridin-4-ylpyrimidin-4(3H)-one], the inhibition at 1 µM came out at 84%.

With `CC(=O)N1CCC[C@@H]1CNc1nc(-c2ccncc2)cc(=O)n1C` [Example 58, 2-({[(2R)-1-Acetylpyrrolidin-2-yl]methyl}amino)-3-methyl-6-pyridin-4-ylpyrimidin-4(3H)-one], the inhibition at 1 µM is 64%.

Still in this experiment, the particulars now being: cell free enzyme assay; Examples 62-155.
As to `CN(c1nc(-c2ccncc2F)cc(=O)n1C)[C@H]1[C@@H]2CN(C(=O)c3cnn(C)c3Cl)C[C@@H]21` [Example 120, 2-[{(1R,5S,6s)-3-[(5-Chloro-1-methyl-1H-pyrazol-4-yl)carbonyl]-3-azabicyclo[3.1.0]hex-6-yl}(methyl)amino]-6-(3-fluoropyridin-4-yl)-3-methylpyrimidin-4(3H)-one], the IC50 was 4.52 nM.

With `CN(c1nc(-c2ccncc2F)cc(=O)n1C)[C@H]1[C@@H]2CN(C(=O)c3ccc(Cl)nc3)C[C@@H]21` [Example 126, 2-[{(1R,5S,6s)-3-[(6-Chloropyridin-3-yl)carbonyl]-3-azabicyclo[3.1.0]hex-6-yl}(methyl)amino]-6-(3-fluoropyridin-4-yl)-3-methylpyrimidin-4(3H)-one], the IC50 is 6.98 nM.

Take `CN(c1nc(-c2ccncc2F)cc(=O)n1C)[C@H]1[C@@H]2CN(C(=O)c3cc(F)ccc3F)C[C@@H]21` [Example 130, 2-{[(1R,5S,6s)-3-(2,5-Difluorobenzoyl)-3-azabicyclo[3.1.0]hex-6-yl](methyl)amino}-6-(3-fluoropyridin-4-yl)-3-methylpyrimidin-4(3H)-one]: the IC50 turned out to be 1.69 nM.

For `CN(c1nc(-c2ccncc2F)cc(=O)n1C)[C@H]1[C@@H]2CN(C(=O)c3ccc(OC(F)F)cc3)C[C@@H]21` [Example 113, 2-[{(1R,5S,6s)-3-[4-(Difluoromethoxy)benzoyl]-3-azabicyclo[3.1.0]hex-6-yl}(methyl)amino]-6-(3-fluoropyridin-4-yl)-3-methylpyrimidin-4(3H)-one], the IC50 was determined as 8.57 nM.

For the molecule `Cn1c(NC2CN(C(=O)Cc3ccccc3)C2)nc(-c2ccncc2)cc1=O` [Example 82, 3-Methyl-2-{[1-(phenylacetyl)azetidin-3-yl]amino}-6-pyridin-4-ylpyrimidin-4(3H)-one], the IC50 worked out at 818 nM.

Turning to `CCN(C[C@H]1CCCN1C(=O)c1ccccc1)c1nc(-c2ccncc2)cc(=O)n1C` [Example 77, 2-[{[(2R)-1-Benzoylpyrrolidin-2-yl]methyl}(ethyl)amino]-3-methyl-6-pyridin-4-ylpyrimidin-4(3H)-one], the IC50 was 29.5 nM.

In the case of `CN(c1nc(-c2ccncc2F)cc(=O)n1C)[C@H]1[C@@H]2CN(C(=O)c3ccc(C(F)(F)F)nc3)C[C@@H]21` [Example 154, 6-(3-Fluoropyridin-4-yl)-3-methyl-2-{methyl[(1R,5S,6s)-3-{[6-(trifluoromethyl)pyridin-3-yl]carbonyl}-3-azabicyclo[3.1.0]hex-6-yl]amino}pyrimidin-4(3H)-one], the IC50 turned out to be 26.4 nM.

`CCN(c1nc(-c2ccncc2)cc(=O)n1C)C1CCCN(C(=O)Cc2ccccc2)CC1` (centres unmarked) [Example 89, 2-{Ethyl[1-(phenylacetyl)azepan-4-yl]amino}-3-methyl-6-pyridin-4-ylpyrimidin-4(3H)-one]: the IC50 was determined as 64.6 nM.

Take `CN(c1nc(-c2ccncc2F)cc(=O)n1C)[C@H]1[C@@H]2CN(C(=O)c3cccc(Cl)n3)C[C@@H]21` [Example 96, 2-[{(1R,5S,6s)-3-[(6-Chloropyridin-2-yl)carbonyl]-3-azabicyclo[3.1.0]hex-6-yl}(methyl)amino]-6-(3-fluoropyridin-4-yl)-3-methylpyrimidin-4(3H)-one]: the half-maximal inhibitory concentration (IC50) came out at 3.92 nM.

As to `CSCCC(=O)N1C[C@@H]2[C@H](C1)[C@H]2N(C)c1nc(-c2ccncc2F)cc(=O)n1C` [Example 102, 6-(3-Fluoropyridin-4-yl)-3-methyl-2-(methyl{(1R,5S,6s)-3-[3-(methylthio)propanoyl]-3-azabicyclo[3.1.0]hex-6-yl}amino)pyrimidin-4(3H)-one], the IC50 was found to be 16 nM.

The experiment is the same for the next values; noted with them: cell free enzyme assay; Examples 222-234.
Consider `CCOC(=O)N1CCC[C@@H](N(C)c2nc(-c3ccncn3)cc(=O)n2C)C1` [Example 230, Ethyl (3R)-3-[methyl(1-methyl-6-oxo-1,6-dihydro-4,4′-bipyrimidin-2-yl)amino]piperidine-1-carboxylate], for which the IC50 came out at 0.95 nM.

For the molecule `CCN(C[C@@H]1CCCN1C(=O)OC)c1nc(-c2ccncn2)cc(=O)n1C` [Example 224, Methyl (2S)-2-{[ethyl(1-methyl-6-oxo-1,6-dihydro-4,4′-bipyrimidin-2-yl)amino]methyl}pyrrolidine-1-carboxylate], the 50% inhibitory concentration (IC50) stood at 1.11 nM.

Still in this experiment, the particulars now being: cell free enzyme assay; Examples 265-291.
For `CC(C)Cc1nn(C)c2c(=O)[nH]c(N3C[C@@H]4[C@H](C3)[C@H]4N(C)c3nc(-c4ccncc4F)cc(=O)n3C)nc12` [Example 278, 5-[(1R,5S,6s)-6-{[4-(3-Fluoropyridin-4-yl)-1-methyl-6-oxo-1,6-dihydropyrimidin-2-yl](methyl)amino}-3-azabicyclo[3.1.0]hex-3-yl]-3-isobutyl-1-methyl-1,6-dihydro-7H-pyrazolo[4,3-d]pyrimidin-7-one], the IC50 worked out at 109 nM.

Consider `Cc1nc(N2C[C@@H]3[C@H](C2)[C@H]3N(C)c2nc(-c3ccncc3F)cc(=O)n2C)n2nc(-c3ccccc3Cl)c(I)c2n1` [Example 285, 2-[{(1R,5S,6s)-3-[7-(2-Chlorophenyl)-8-iodo-2-methylpyrazolo[1,5-a][1,3,5]triazin-4-yl]-3-azabicyclo[3.1.0]hex-6-yl}(methyl)amino]-6-(3-fluoropyridin-4-yl)-3-methylpyrimidin-4(3H)-one], for which the IC50 worked out at 5670 nM.

On to `CC(C)n1nnnc1N1C[C@@H]2[C@H](C1)[C@H]2N(C)c1nc(-c2ccncc2F)cc(=O)n1C` [Example 282, 6-(3-Fluoropyridin-4-yl)-2-{[(1R,5S,6s)-3-(1-isopropyl-1H-tetrazol-5-yl)-3-azabicyclo[3.1.0]hex-6-yl](methyl)amino}-3-methylpyrimidin-4(3H)-one], for which the IC50 is 3.25 nM.

The inhibition is the relative decrease from the control value, in per cent. A word on the IC50: it is the concentration that inhibits the measured activity by half.
